For the assay, the target named is T1, T2R16 (hT2R16) (Homo sapiens, UniProt Q9NYV7).
T1 construct: gene TAS2R16; coding region with N-terminal rSST3 tag (45 N-terminal residues of rat somatostatin receptor subtype 3), pcDNA5, transient in HEK293 PEAKrapid Galpha16i/o44 cells
T1 sequence (Q9NYV7 1-291): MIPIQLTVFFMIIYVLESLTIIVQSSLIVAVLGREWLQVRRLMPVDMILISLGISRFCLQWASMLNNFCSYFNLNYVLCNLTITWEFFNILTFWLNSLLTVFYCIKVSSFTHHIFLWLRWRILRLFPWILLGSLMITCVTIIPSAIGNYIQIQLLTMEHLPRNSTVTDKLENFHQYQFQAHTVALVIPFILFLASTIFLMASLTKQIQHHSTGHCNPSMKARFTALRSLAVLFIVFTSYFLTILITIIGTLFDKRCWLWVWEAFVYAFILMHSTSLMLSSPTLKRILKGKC
Put plainly: FLIPR calcium imaging (Cal520-AM). Type of assay: cell-based.

As a reminder, the EC50 is the concentration giving half of the maximal effect.

As to `CC(C)/C(=N/OS(=O)(=O)O)S[C@@H]1O[C@H](CO)[C@@H](O)[C@H](O)[C@H]1O` [compound 3, glucoputranjivin], the EC50 is above 1 mM.

Values taken from publication PMC6943552, “Glucosinolates in Sisymbrium officinale (L.) Scop.: Comparative Analysis in Cultivated and Wild Plants and in Vitro Assays with T2Rs Bitter Taste Receptors” (Molecules, 2019).
